According to PubChem BioAssay AID1259407 (Chemical Carcinogenesis Research Information System (CCRIS), 2018):
The source made the active and inactive calls. How the calls were made is not given here.

System: CCRIS mutagenicity, Ames/micronucleus/aberration tests
Test: CCRIS mutagenicity studies
[1] = Test System: AMES SALMONELLA TYPHIMURIUM, Strain/Indicator: TA98, Metabolic Activation: NONE, Method: STANDARD PLATE
[2] = Test System: AMES SALMONELLA TYPHIMURIUM, Strain/Indicator: TA98, Metabolic Activation: RAT, LIVER, S-9, AROCLOR 1254, Method: STANDARD PLATE
[3] = Test System: AMES SALMONELLA TYPHIMURIUM, Strain/Indicator: TA100, Metabolic Activation: NONE, Method: STANDARD PLATE
[4] = Test System: AMES SALMONELLA TYPHIMURIUM, Strain/Indicator: TA100, Metabolic Activation: RAT, LIVER, S-9, AROCLOR 1254, Method: STANDARD PLATE
[5] = Test System: AMES SALMONELLA TYPHIMURIUM, Strain/Indicator: TA102, Metabolic Activation: NONE, Method: STANDARD PLATE

## Nc1ccccc1C(=O)OC1CCCCC1
Test System: AMES SALMONELLA TYPHIMURIUM, Strain/Indicator: TA97, Metabolic Activation: HAMSTER, LIVER, S-9, AROCLOR 1254 (10%), Method: PREINCUBATION
  mutagenic call: inactive; negative
Test System: AMES SALMONELLA TYPHIMURIUM, Strain/Indicator: TA97, Metabolic Activation: HAMSTER, LIVER, S-9, AROCLOR 1254 (30%), Method: PREINCUBATION
  mutagenic call: inactive; negative
Test System: AMES SALMONELLA TYPHIMURIUM, Strain/Indicator: TA97, Metabolic Activation: NONE, Method: PREINCUBATION
  mutagenic call: inactive; negative
Test System: AMES SALMONELLA TYPHIMURIUM, Strain/Indicator: TA97, Metabolic Activation: RAT, LIVER, S-9, AROCLOR 1254 (10%), Method: PREINCUBATION
  mutagenic call: inactive; negative
Test System: AMES SALMONELLA TYPHIMURIUM, Strain/Indicator: TA97, Metabolic Activation: RAT, LIVER, S-9, AROCLOR 1254 (30%), Method: PREINCUBATION
  mutagenic call: inactive; negative
Test System: AMES SALMONELLA TYPHIMURIUM, Strain/Indicator: TA98, Metabolic Activation: HAMSTER, LIVER, S-9, AROCLOR 1254 (10%), Method: PREINCUBATION
  mutagenic call: inactive; negative
Test System: AMES SALMONELLA TYPHIMURIUM, Strain/Indicator: TA98, Metabolic Activation: HAMSTER, LIVER, S-9, AROCLOR 1254 (30%), Method: PREINCUBATION
  mutagenic call: inactive; negative
Test System: AMES SALMONELLA TYPHIMURIUM, Strain/Indicator: TA98, Metabolic Activation: NONE, Method: PREINCUBATION
  mutagenic call: inactive; negative
Test System: AMES SALMONELLA TYPHIMURIUM, Strain/Indicator: TA98, Metabolic Activation: RAT, LIVER, S-9, AROCLOR 1254 (10%), Method: PREINCUBATION
  mutagenic call: inactive; negative
Test System: AMES SALMONELLA TYPHIMURIUM, Strain/Indicator: TA98, Metabolic Activation: RAT, LIVER, S-9, AROCLOR 1254 (30%), Method: PREINCUBATION
  mutagenic call: inactive; negative
Test System: AMES SALMONELLA TYPHIMURIUM, Strain/Indicator: TA100, Metabolic Activation: HAMSTER, LIVER, S-9, AROCLOR 1254 (10%), Method: PREINCUBATION
  mutagenic call: inactive; negative
Test System: AMES SALMONELLA TYPHIMURIUM, Strain/Indicator: TA100, Metabolic Activation: HAMSTER, LIVER, S-9, AROCLOR 1254 (30%), Method: PREINCUBATION
  mutagenic call: inactive; negative
Test System: AMES SALMONELLA TYPHIMURIUM, Strain/Indicator: TA100, Metabolic Activation: NONE, Method: PREINCUBATION
  mutagenic call: inactive; negative
Test System: AMES SALMONELLA TYPHIMURIUM, Strain/Indicator: TA100, Metabolic Activation: RAT, LIVER, S-9, AROCLOR 1254 (10%), Method: PREINCUBATION
  mutagenic call: inactive; negative
Test System: AMES SALMONELLA TYPHIMURIUM, Strain/Indicator: TA100, Metabolic Activation: RAT, LIVER, S-9, AROCLOR 1254 (30%), Method: PREINCUBATION
  mutagenic call: inactive; negative
Test System: AMES SALMONELLA TYPHIMURIUM, Strain/Indicator: TA1535, Metabolic Activation: HAMSTER, LIVER, S-9, AROCLOR 1254 (10%), Method: PREINCUBATION
  mutagenic call: inactive; negative
Test System: AMES SALMONELLA TYPHIMURIUM, Strain/Indicator: TA1535, Metabolic Activation: HAMSTER, LIVER, S-9, AROCLOR 1254 (30%), Method: PREINCUBATION
  mutagenic call: inactive; negative
Test System: AMES SALMONELLA TYPHIMURIUM, Strain/Indicator: TA1535, Metabolic Activation: NONE, Method: PREINCUBATION
  mutagenic call: inactive; negative
Test System: AMES SALMONELLA TYPHIMURIUM, Strain/Indicator: TA1535, Metabolic Activation: RAT, LIVER, S-9, AROCLOR 1254 (10%), Method: PREINCUBATION
  mutagenic call: inactive; negative
Test System: AMES SALMONELLA TYPHIMURIUM, Strain/Indicator: TA1535, Metabolic Activation: RAT, LIVER, S-9, AROCLOR 1254 (30%), Method: PREINCUBATION
  mutagenic call: inactive; negative

## C=C(C)c1ccc(C)c2ccc(CO)c-2c1
[1]
  mutagenic call: inactive; negative
[2]
  mutagenic call: active; positive
[3]
  mutagenic call: inactive; negative
[4]
  mutagenic call: active; positive

## CCCCOCC=O
Test System: AMES SALMONELLA TYPHIMURIUM, Strain/Indicator: TA97A, Metabolic Activation: NONE, Method: STANDARD PLATE
  mutagenic call: inactive; negative
Test System: AMES SALMONELLA TYPHIMURIUM, Strain/Indicator: TA97A, Metabolic Activation: RAT, LIVER, S-9, AROCLOR 1254, Method: STANDARD PLATE
  mutagenic call: inactive; negative
[1]
  mutagenic call: inactive; negative
[2]
  mutagenic call: inactive; negative
[3]
  mutagenic call: inactive; negative
[4]
  mutagenic call: inactive; negative
[5]
  mutagenic call: inactive; negative
Test System: AMES SALMONELLA TYPHIMURIUM, Strain/Indicator: TA102, Metabolic Activation: RAT, LIVER, S-9, AROCLOR 1254, Method: STANDARD PLATE
  mutagenic call: inactive; negative
Test System: CHINESE HAMSTER OVARY, Strain/Indicator: CHO-AS52/6-THIOGUANINE, Metabolic Activation: NONE
  mutagenic call: inactive; negative
Test System: CHINESE HAMSTER V-79, Strain/Indicator: V-79 (HPRT)/6-THIOGUANINE, Metabolic Activation: NONE
  mutagenic call: active; positive

## C[C@@]12CCc3occc3[C@H]1CC[C@@]13C[C@@H](CC[C@H]12)[C@@](O)(CO)C3
Test System: AMES SALMONELLA TYPHIMURIUM, Strain/Indicator: TM677, Metabolic Activation: NONE, Method: PREINCUBATION
  mutagenic call: inactive; negative
Test System: AMES SALMONELLA TYPHIMURIUM, Strain/Indicator: TM677, Metabolic Activation: RAT, LIVER, S-9, AROCLOR 1254, Method: PREINCUBATION
  mutagenic call: inactive; negative

## CCn1cc(C(=O)O)c(=O)c2cc(F)c(N3CCNC(C)C3)c(F)c21 (configuration not stated)
[1]
  mutagenic call: inactive; negative
Test System: AMES SALMONELLA TYPHIMURIUM, Strain/Indicator: TA98, Metabolic Activation: RAT, LIVER, S-9, PHENOBARBITAL, Method: STANDARD PLATE
  mutagenic call: inactive; negative
[3]
  mutagenic call: inactive; negative
Test System: AMES SALMONELLA TYPHIMURIUM, Strain/Indicator: TA100, Metabolic Activation: RAT, LIVER, S-9, PHENOBARBITAL, Method: STANDARD PLATE
  mutagenic call: inactive; negative
[5]
  mutagenic call: active; positive
Test System: CHINESE HAMSTER V-79, Strain/Indicator: V-79 (HGPRT)/6-THIOGUANINE, Metabolic Activation: NONE, Method: STANDARD PLATE
  mutagenic call: inactive; negative

## COc1cc([N+](=O)[O-])ccc1NC(C)=O
[1]
  mutagenic call: active; positive
[2]
  mutagenic call: inactive; negative

## C1=Cc2c3ccc4ccccc4c3cc3cccc1c23
Test System: AMES SALMONELLA TYPHIMURIUM, Strain/Indicator: TA98, Metabolic Activation: HUMAN, LIVER, MICROSOMES, Method: STANDARD PLATE
  mutagenic call: active; positive
[1]
  mutagenic call: inactive; negative
Test System: AMES SALMONELLA TYPHIMURIUM, Strain/Indicator: TA98, Metabolic Activation: RAT, LIVER, HEPATOCYTES, Method: PREINCUBATION
  mutagenic call: active; positive
Test System: AMES SALMONELLA TYPHIMURIUM, Strain/Indicator: TA98, Metabolic Activation: RAT, LIVER, MICROSOMES, AROCLOR 1254, Method: STANDARD PLATE
  mutagenic call: active; positive
Test System: AMES SALMONELLA TYPHIMURIUM, Strain/Indicator: TA98, Metabolic Activation: RAT, LIVER, MICROSOMES, Method: STANDARD PLATE
  mutagenic call: active; positive
Test System: AMES SALMONELLA TYPHIMURIUM, Strain/Indicator: TA98, Metabolic Activation: RAT, LIVER, S-9, AROCLOR 1254 (0.4, 0.8, 1.15 OR 1.5 MG/PLATE), Method: STANDARD PLATE
  mutagenic call: active; positive
[2]
  mutagenic call: active; positive
Test System: AMES SALMONELLA TYPHIMURIUM, Strain/Indicator: TA98, Metabolic Activation: RAT, LUNG, MICROSOMES, AROCLOR 1254, Method: STANDARD PLATE
  mutagenic call: active; positive
Test System: AMES SALMONELLA TYPHIMURIUM, Strain/Indicator: TA98, Metabolic Activation: RAT, LUNG, MICROSOMES, Method: STANDARD PLATE
  mutagenic call: inactive; negative
Test System: CHINESE HAMSTER OVARY, Strain/Indicator: V-79/6-THIOGUANINE, Metabolic Activation: RAT, LIVER, S-9, AROCLOR 1254, Method: FLASK ASSAY
  mutagenic call: active; positive
Test System: CHINESE HAMSTER OVARY, Strain/Indicator: V-79/6-THIOGUANINE, Metabolic Activation: SHE CELL MEDIATED, Method: FLASK ASSAY
  mutagenic call: inactive; negative
Test System: CHINESE HAMSTER V-79, Strain/Indicator: V-79/6-THIOGUANINE, Metabolic Activation: RAT, LIVER, S-9, AROCLOR 1254, Method: SUSPENSION/PLATE
  mutagenic call: active; positive
Test System: UDS RAT HEPATOCYTES, Strain/Indicator: THY INCORP, Metabolic Activation: NONE, Method: LIQUID SCINTILLATION COUNTING
  mutagenic call: active; positive
